The target in test [1] is Oxysterols receptor LXR-beta (Homo sapiens, UniProt P55055). It is filed as functional, cell-based.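 Also: agonist activity at LXR measured by a cell-based luminescence readout across a dose range, run as a counterscreen for daf-12 agonists; HEK293 cells with Gal4-LXR fusion and GAL4-driven luciferase reporter; potency for activation of Gal4-LXR reporter so compounds are agonists.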
Test [2] deals with T1, Fibrinogen beta chain (Homo sapiens, UniProt P02675). The experiment in a line: Fluorescence polarization-based biochemical high throughput dose response assay to identify inhibitors that disrupt the binding of a cyclic peptide (Tn7) to the fibrin proteolytic product D-Dimer and fragment E complex [DD(E )].
Test [3] deals with T1, Fibrinogen beta chain. The experiment in a line: Fluorescence polarization-based biochemical high throughput dose response assay to identify inhibitors that disrupt the binding of a cyclic peptide (Tn6) to the fibrin proteolytic product D-Dimer and fragment E complex [DD(E )]. For orientation: Polarisation of emitted light reports the rotation of a fluorescent probe.
The target in another test is Fatty acid synthase (Homo sapiens, UniProt P49327). The experiment in a line: inhibition of human FAS-TE enzyme activity – biochemical, endpoint fluorescence intensity, powder samples, SAR follow-up (AID 652164). The class given is functional.
The target in test [4] is Tyrosyl-DNA phosphodiesterase 2 (Homo sapiens, UniProt O95551). The experiment in a line: potency against TDP2 phosphodiesterase activity – biochemical, epi absorbance, IC50, dose response (AID 743297).
Test [5] addresses Peroxisome proliferator-activated receptor gamma/Nuclear receptor corepressor 2 (Homo sapiens, UniProt P37231+Q9Y618). It is filed as functional.
For a further test, the target named is Major prion protein (Homo sapiens, UniProt P04156). The class given is functional, cell-based.
Test [6] addresses CAAX prenyl protease 2 (Homo sapiens, UniProt Q9Y256). The experiment in a line: inhibition of Ras-converting CAAX protease Rce1 – biochemical, yeast membranes, quenched-peptide fluorescence, cherry-pick, dose response (AID 588849).
Test [7] deals with T2, CAAX prenyl protease 2 (Saccharomyces cerevisiae S288c, UniProt Q03530).
T2 sequence (Q03530 whole entry): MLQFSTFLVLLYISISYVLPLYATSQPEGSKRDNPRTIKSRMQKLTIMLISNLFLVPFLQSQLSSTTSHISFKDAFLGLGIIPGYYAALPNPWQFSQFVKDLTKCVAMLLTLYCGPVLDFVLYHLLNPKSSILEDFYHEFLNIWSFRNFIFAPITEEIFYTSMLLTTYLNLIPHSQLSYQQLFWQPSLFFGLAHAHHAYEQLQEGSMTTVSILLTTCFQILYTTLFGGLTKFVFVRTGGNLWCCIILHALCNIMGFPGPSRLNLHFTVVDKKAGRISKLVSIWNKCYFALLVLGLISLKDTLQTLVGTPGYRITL
The class given is biochemical.

The target of test [8] is Photoreceptor-specific nuclear receptor (Homo sapiens, UniProt Q9Y5X4). It is filed as functional.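 Also: potency for compounds that break the NR2E3 corepressor complex and count as activators.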
Test [9] deals with Dual specificity tyrosine-phosphorylation-regulated kinase 1A (Rattus norvegicus, UniProt Q63470). It is filed as biochemical, Homo sapiens.
The target in test [10] is T3, Small ubiquitin-related modifier 1 (Homo sapiens, UniProt P63165). Briefly: SUMO1 protein-protein binding blockers, potency – biochemical, FRET, dose response (AID 624383). The class given is functional. As to conditions: read-out: IC50_Mean.
Test [11] deals with T3, Small ubiquitin-related modifier 1. The experiment in a line: SUMO1 protein interaction blockers, potency – biochemical, fluorescence polarization, uHTS hits, dose response (AID 624382). To be noted: read-out: IC50_Mean. It is filed as functional.
Test [12] in a line: growth inhibition of PfATP4-mutant resistant parasites – NITD609-resistant line, SYBR Green, dry powder, dose response (AID 1159571).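 Also: parasites synchronized at ring stage by sorbitol before testing.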 The class given is functional, cell-based.
Test [13] is described as follows: toxicity to human HepG2 hepatoma cells – cell-based, plate reader, dry powder samples, cytotoxicity control, dose response (AID 1159569).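 Also: inhibitor potency with signal falling toward the positive control level.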 The class given is functional.
A short description of test [14]: growth inhibition of yeast DHODH-expressing 3D7 parasites – SYBR Green, dry powder samples, dose response (AID 1159570).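 Also: parasite growth measured after 72 hours of compound exposure.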 It is filed as functional, cell-based.
Test [15] is described as follows: P. falciparum Dd2 growth inhibitors, dose response, SYBR Green, cherry-picked samples (AID 1159567). The class given is functional, cell-based.
A short description of test [16]: Dd2 malaria parasite growth inhibition potency – SYBR Green, dry powder samples, dose response (AID 1159566).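 Also: potency for growth inhibition with lower SYBR green DNA signal.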 The class given is functional, cell-based.
For test [17], the target named is RNA-editing ligase 1, mitochondrial (Trypanosoma brucei brucei, UniProt P86926). Briefly: inhibition of trypanosome RNA editing ligase – biochemical, fluorescence, Trypanosoma brucei, dose response (AID 1117295). It is filed as functional.
For test [18], the target named is T4, Corticotropin-releasing factor receptor 2/Corticotropin-releasing factor-binding protein (Homo sapiens, UniProt P24387+Q13324).
T4 sequence (Q13324 whole entry): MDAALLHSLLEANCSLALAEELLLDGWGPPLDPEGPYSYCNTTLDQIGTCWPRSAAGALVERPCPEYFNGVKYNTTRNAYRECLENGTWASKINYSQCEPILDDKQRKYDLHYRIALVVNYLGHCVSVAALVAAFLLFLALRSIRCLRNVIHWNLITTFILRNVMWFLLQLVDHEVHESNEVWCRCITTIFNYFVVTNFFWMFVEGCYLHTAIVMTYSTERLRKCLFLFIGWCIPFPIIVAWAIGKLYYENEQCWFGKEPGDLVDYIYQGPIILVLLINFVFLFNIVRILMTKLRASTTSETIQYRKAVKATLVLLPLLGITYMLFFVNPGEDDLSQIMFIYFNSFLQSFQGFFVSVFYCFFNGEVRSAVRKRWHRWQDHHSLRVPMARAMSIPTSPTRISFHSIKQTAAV
T4 sequence (P24387 whole entry): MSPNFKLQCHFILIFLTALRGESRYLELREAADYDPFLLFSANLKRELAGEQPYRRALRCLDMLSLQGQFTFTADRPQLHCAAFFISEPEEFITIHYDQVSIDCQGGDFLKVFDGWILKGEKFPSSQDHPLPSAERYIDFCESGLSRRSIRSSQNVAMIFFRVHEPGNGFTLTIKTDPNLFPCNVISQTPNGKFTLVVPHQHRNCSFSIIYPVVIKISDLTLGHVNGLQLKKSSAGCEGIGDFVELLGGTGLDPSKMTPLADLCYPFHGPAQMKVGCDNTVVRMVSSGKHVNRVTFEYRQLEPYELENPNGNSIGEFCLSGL
The experiment in a line: activators of CRF receptor 2 with binding protein – uHTS hits, confirmation (AID 602473). It is filed as functional. To be noted: read-out: EC50_Mean.

Test [19] can be described thus: rise of 2N DNA cells, HeLa – IC50, dose response (AID 1117349). It is filed as functional, cell-based.
Test [20] addresses T4, Corticotropin-releasing factor receptor 2/Corticotropin-releasing factor-binding protein. The experiment in a line: Dose Response confirmation of uHTS hits for small molecule antagonists of the CRF-binding protein and CRF-R2 receptor complex. It is filed as functional. To be noted: read-out: IC50_Mean.
A short description of test [21]: rise of 4N DNA cells, HeLa – IC50, dose response (AID 1117351). It is filed as functional, cell-based.
A short description of test [22]: inhibitors of non-replicating M. tuberculosis, dose response, luciferase, dry powder (AID 651620). To be noted: Mycobacterium tuberculosis. The class given is functional.
A short description of test [23]: inhibitors of non-replicating M. tuberculosis, dose response, luciferase, dry powder (AID 651619). It is filed as functional. To be noted: Mycobacterium tuberculosis.
Test [24] is described as follows: growth inhibition of replicating M. tuberculosis, dose response, counter-screen, dry powder, IC90 (AID 651617). The class given is functional. As to conditions: Mycobacterium tuberculosis. (In general: A counterscreen serves to expose hits that act by an unwanted route or on another target.)
Another test addresses Phospholipase D2 (Homo sapiens, UniProt O14939). The experiment in a line: PLD2 Cellular Concentration Response Study. It is filed as functional.
A further test addresses Phospholipase D1 (Homo sapiens, UniProt Q13393). The experiment in a line: PLD1 Cellular Concentration Response Study. The class given is functional.

The results in this text go back to ChEMBL document CHEMBL1201862, “PubChem BioAssay data set” (2004).

Active and inactive are the calls of the source.

Consider `Cc1ccc(-c2csc(NC(=O)/C=C/c3ccco3)c2C(=O)O)cc1`, for which, in test [1], the EC50 is > 67.6 µM (inactive).

As for `C#CCNc1ccc(C(=O)OCC)cc1`, the IC50 at Fibrinogen beta chain [2] is > 27.7 µM (inactive); at Fibrinogen beta chain [3], > 83.1 µM (inactive).

Turning to `CCN(CC)S(=O)(=O)c1ccc(-c2csc(NC(=O)C3CCC3)n2)cc1`, the IC50 on Fatty acid synthase was 0.985 µM (active).

The term AC50 denotes the concentration giving half of the maximal activity seen. Take `N#CC(C#N)=C1NC(N)=C(C#N)C(c2ccccc2)=C1C#N`: the IC50 in [4] is > 128 µM (inactive); in test [5], 3.22 µM (active); on Major prion protein, 1.92 µM (active); in test [8] it was 8.41 µM (active); in “cells” it was > 138 µM (inactive); in [10], 100 µM (inactive). For the same compound, the IC50 in [11] is > 66.6 µM (inactive). Also, the AC50 is 8.31 µM (active) on CAAX prenyl protease 2 [6], > 100 µM (inactive) at CAAX prenyl protease 2 [7] and 4.56 µM (active) in test [9].

On to `C/C=C/c1ccc([C@H]2[C@@H](CO)N(CC3CCCC3)[C@@H]2CNC(=O)NC(C)C)cc1`, for which the AC50 in test [12] is 2.41 µM (active); in test [13], 25.4 µM (active); in test [14], 2.73 µM (active); in [15] it was 2.71 µM (active); in test [16] it was 1.91 µM (active).

Regarding `C=CCNC1=NC(c2cccc(F)c2)C(C(=O)OC)=C(C)N1Cc1cccc(C(F)(F)F)c1` (centres undefined), the IC50 in [17] was > 96.6 µM (inactive).

As for `Nc1nc(F)nc2c1ncn2[C@@H]1O[C@H](CO)[C@@H](O)[C@@H]1O` [FLUDARABINE], the EC50 in [18] is > 53 µM (inactive). Also, the figures for the IC50 in test [19], in [20] and in [21] were > 10 µM (inactive), > 47.1 µM (inactive) and > 10 µM (inactive), respectively.

As a reminder, the IC90 is the concentration needed for an effect of 90%. Regarding `[N-]=[N+]=NCCOCCNC(=O)CCCOc1ccc(CSc2nnc(-c3ccc(F)cc3)o2)nc1`, the IC90 in test [22] is 16 µM (active); in test [23], 16 µM (active); in test [24] it was 250 µM (active).

On to `O=C(NCCN1CCC2(CC1)C(=O)NCN2CC1CC1)c1ccc2ccccc2c1`, for which the IC50 was 2.05 µM (active) at Phospholipase D2 and 20 µM (active) on Phospholipase D1.
